Source: publication PMC9454848, “BMS-986158, a Small Molecule Inhibitor of the Bromodomain and Extraterminal Domain Proteins, in Patients with Selected Advanced Solid Tumors: Results from a Phase 1/2a Trial” (Cancers, 2022)
“Also recorded” adds a separate entry of the source. Where two headings read alike, the source gives them in different places.

Tests used:
[1] = Plasma pharmacokinetics after single dose (C1D1), LC-MS/MS; type: in vivo, human; conditions: for half-life / Vd/F / AUC(0-t) / Tmax / Cmax: human, plasma, oral
Experimental: At C1D1 in every dosing schedule cohort, a single dose was administered followed by 168 h (i.e., 7 days) of intensive PK sampling. Following cycle 1, the multiple-dose treatment schedules (described above) began in cycle 2. PK parameters were derived following single dose combined across all schedules and multiple doses at cycle 2 for each schedule. […] PK assessments were evaluated for BMS-986158 and its metabolite using plasma samples at regular intervals. Both the parent and metabolite samples were simultaneously analyzed using a validated liquid chromatography and tandem mass spectrometry assay.
All treated patients who received ≥1 dose of BMS-986158 were evaluated in the safety population. […] All treated patients with available and sufficient serum or plasma samples for the corresponding analytes were included in the PK analyses. […] ECG parameters were evaluated in a categorical analysis, and linear mixed-effects regression modeling was used to describe the quantitative relationship between ΔQTcF and time-matched serum concentrations of BMS-986158 or its metabolite at a single dose.

[2] = system: CCR2 mRNA; experiment: Change from baseline in gene expression, CCR2; type: in vivo, human; conditions: patients; single dose up to 4.5 mg and schedule A
Experimental: Summary changes from baseline in the expression of BET-regulated genes were assessed in tumor tissues and blood collected at baseline and multiple on-treatment time points after BMS-986158 administration following the 3 dosing schedules. The study also assessed summary percent changes from baseline in expression of BET-regulated genes in peripheral blood and tumors (such as HEXIM1 and C-MYC). Tissue and peripheral blood samples (at baseline and on treatment) were collected for genomic, transcriptomic, and epigenetic analyses (by DNA or mRNA) to assess pharmacodynamic changes in BET-regulated genes. These samples were analyzed using whole-exome sequencing, real-time quantitative polymerase chain reaction, and RNA-sequencing methods.
All treated patients with available biomarker measurements at baseline and ≥1 time point were included in the biomarker analyses. Blood and tumor tissue samples were collected at baseline, during treatment, and at end of treatment for biomarker analysis. Markers of selected BET-regulated genes (e.g., HEXIM1) were analyzed with summary statistics for percent changes in expression from available matched pre- and on-treatment samples over time relative to baseline. Statistically significant changes in gene expression were determined using the Benjamini–Hochberg procedure to calculate an adjusted p value with an α level of 0.05.

## Cc1nnn(C)c1-c1cnc2c3ccc(C(C)(C)O)cc3n([C@H](c3ccccc3)C3CCOCC3)c2c1 [BMS-986158]
[1]; 0.75–4.5 mg
  Dose proportionality of plasma concentrations: dose proportional
[1]; 0.75 mg, cohort Schedule A, 0.75 mg, n = 4, read-out: Effective T1/2, mean (SD) (converted)
  half-life: 33.7 h
[1]; 0.75 mg, cohort Schedule A, 0.75 mg, n = 4, read-out: Vz/F, GM (%CV)
  Vd/F: 14.7 L
[1]; 0.75 mg, cohort Schedule A, 0.75 mg, n = 5, read-out: AUC(0–24), GM (%CV)
  AUC(0-t): 1030 ng·h/mL
[1]; 0.75 mg, cohort Schedule A, 0.75 mg, n = 5, read-out: AUC(0–T), GM (%CV)
  AUC(0-t): 2150 ng·h/mL
[1]; 0.75 mg, cohort Schedule A, 0.75 mg, n = 5, read-out: Tmax, median
  Tmax: 4 h
[1]; 0.75 mg, cohort Schedule A, n = 5
  Cmax: 68.8 ng/mL
[1]; 1.25 mg, cohort Schedule A, 1.25 mg, n = 3, read-out: AUC(0–24), GM (%CV)
  AUC(0-t): 2310 ng·h/mL
[1]; 1.25 mg, cohort Schedule A, 1.25 mg, n = 3, read-out: AUC(0–T), GM (%CV)
  AUC(0-t): 6370 ng·h/mL
[1]; 1.25 mg, cohort Schedule A, 1.25 mg, n = 3, read-out: Effective T1/2, mean (SD) (converted)
  half-life: 48.7 h
[1]; 1.25 mg, cohort Schedule A, 1.25 mg, n = 3, read-out: Tmax, median
  Tmax: 1 h
[1]; 1.25 mg, cohort Schedule A, 1.25 mg, n = 3, read-out: Vz/F, GM (%CV)
  Vd/F: 12.5 L
[1]; 1.25 mg, cohort Schedule A, n = 3
  Cmax: 175 ng/mL
[1]; 2 mg, cohort Schedule A, 2.0 mg, n = 4, read-out: Effective T1/2, mean (SD) (converted)
  half-life: 41.4 h
[1]; 2 mg, cohort Schedule A, 2.0 mg, n = 4, read-out: Vz/F, GM (%CV)
  Vd/F: 14.6 L
[1]; 2 mg, cohort Schedule A, 2.0 mg, n = 9, read-out: AUC(0–24), GM (%CV)
  AUC(0-t): 3610 ng·h/mL
[1]; 2 mg, cohort Schedule A, 2.0 mg, n = 9, read-out: AUC(0–T), GM (%CV)
  AUC(0-t): 8560 ng·h/mL
[1]; 2 mg, cohort Schedule A, 2.0 mg, n = 9, read-out: Tmax, median
  Tmax: 2 h
[1]; 2 mg, cohort Schedule A, n = 9
  Cmax: 260 ng/mL
[1]; 2 mg, cohort Schedule B, 2.0 mg, n = 1, read-out: AUC(0–24), GM (%CV)
  AUC(0-t): 2360 ng·h/mL
[1]; 2 mg, cohort Schedule B, 2.0 mg, n = 1, read-out: AUC(0–T), GM (%CV)
  AUC(0-t): 5200 ng·h/mL
[1]; 2 mg, cohort Schedule B, 2.0 mg, n = 1, read-out: Effective T1/2, mean (SD) (converted)
  half-life: 44.2 h
[1]; 2 mg, cohort Schedule B, 2.0 mg, n = 1, read-out: Tmax, median
  Tmax: 1 h
[1]; 2 mg, cohort Schedule B, 2.0 mg, n = 1, read-out: Vz/F, GM (%CV)
  Vd/F: 23.2 L
[1]; 2 mg, cohort Schedule B, n = 1
  Cmax: 207 ng/mL
[1]; 2 mg, cohort Schedule C, 2.0 mg, n = 6, read-out: AUC(0–24), GM (%CV)
  AUC(0-t): 3660 ng·h/mL
[1]; 2 mg, cohort Schedule C, 2.0 mg, n = 6, read-out: AUC(0–T), GM (%CV)
  AUC(0-t): 10900 ng·h/mL
[1]; 2 mg, cohort Schedule C, 2.0 mg, n = 6, read-out: Effective T1/2, mean (SD) (converted)
  half-life: 64.6 h
[1]; 2 mg, cohort Schedule C, 2.0 mg, n = 6, read-out: Tmax, median
  Tmax: 1 h
[1]; 2 mg, cohort Schedule C, 2.0 mg, n = 6, read-out: Vz/F, GM (%CV)
  Vd/F: 13.9 L
[1]; 2 mg, cohort Schedule C, n = 6
  Cmax: 295 ng/mL
[1]; 3 mg, cohort Schedule A, 3.0 mg, n = 7, read-out: Effective T1/2, mean (SD) (converted)
  half-life: 33.3 h
[1]; 3 mg, cohort Schedule A, 3.0 mg, n = 7, read-out: Vz/F, GM (%CV)
  Vd/F: 12.8 L
[1]; 3 mg, cohort Schedule A, 3.0 mg, n = 10, read-out: AUC(0–24), GM (%CV)
  AUC(0-t): 4940 ng·h/mL
[1]; 3 mg, cohort Schedule A, 3.0 mg, n = 10, read-out: AUC(0–T), GM (%CV)
  AUC(0-t): 10500 ng·h/mL
[1]; 3 mg, cohort Schedule A, 3.0 mg, n = 10, read-out: Tmax, median
  Tmax: 2 h
[1]; 3 mg, cohort Schedule A, n = 10
  Cmax: 328 ng/mL
[1]; 3 mg, cohort Schedule B, 3.0 mg, n = 1, read-out: Effective T1/2, mean (SD) (converted)
  half-life: 54 h
[1]; 3 mg, cohort Schedule B, 3.0 mg, n = 1, read-out: Vz/F, GM (%CV)
  Vd/F: 15.3 L
[1]; 3 mg, cohort Schedule B, 3.0 mg, n = 4, read-out: AUC(0–24), GM (%CV)
  AUC(0-t): 6920 ng·h/mL
[1]; 3 mg, cohort Schedule B, 3.0 mg, n = 4, read-out: AUC(0–T), GM (%CV)
  AUC(0-t): 28900 ng·h/mL
[1]; 3 mg, cohort Schedule B, 3.0 mg, n = 4, read-out: Tmax, median
  Tmax: 1.03 h
[1]; 3 mg, cohort Schedule B, n = 4
  Cmax: 481 ng/mL
[1]; 3 mg, cohort Schedule C, 3.0 mg, n = 10, read-out: Effective T1/2, mean (SD) (converted)
  half-life: 48.2 h
[1]; 3 mg, cohort Schedule C, 3.0 mg, n = 10, read-out: Vz/F, GM (%CV)
  Vd/F: 15.6 L
[1]; 3 mg, cohort Schedule C, 3.0 mg, n = 11, read-out: AUC(0–24), GM (%CV)
  AUC(0-t): 4470 ng·h/mL
[1]; 3 mg, cohort Schedule C, 3.0 mg, n = 11, read-out: AUC(0–T), GM (%CV)
  AUC(0-t): 11500 ng·h/mL
[1]; 3 mg, cohort Schedule C, 3.0 mg, n = 11, read-out: Tmax, median
  Tmax: 1 h
[1]; 3 mg, cohort Schedule C, n = 11
  Cmax: 370 ng/mL
[1]; 4.5 mg, cohort Schedule A, 4.5 mg, n = 9, read-out: Effective T1/2, mean (SD) (converted)
  half-life: 48.3 h
[1]; 4.5 mg, cohort Schedule A, 4.5 mg, n = 9, read-out: Vz/F, GM (%CV)
  Vd/F: 15.7 L
[1]; 4.5 mg, cohort Schedule A, 4.5 mg, n = 10, read-out: AUC(0–24), GM (%CV)
  AUC(0-t): 6790 ng·h/mL
[1]; 4.5 mg, cohort Schedule A, 4.5 mg, n = 10, read-out: AUC(0–T), GM (%CV)
  AUC(0-t): 19100 ng·h/mL
[1]; 4.5 mg, cohort Schedule A, 4.5 mg, n = 10, read-out: Tmax, median
  Tmax: 2.04 h
[1]; 4.5 mg, cohort Schedule A, n = 10
  Cmax: 478 ng/mL
[1]; 4.5 mg, cohort Schedule C, 4.5 mg, n = 5, read-out: Effective T1/2, mean (SD) (converted)
  half-life: 35.7 h
[1]; 4.5 mg, cohort Schedule C, 4.5 mg, n = 5, read-out: Vz/F, GM (%CV)
  Vd/F: 11.6 L
[1]; 4.5 mg, cohort Schedule C, 4.5 mg, n = 7, read-out: AUC(0–24), GM (%CV)
  AUC(0-t): 7420 ng·h/mL
[1]; 4.5 mg, cohort Schedule C, 4.5 mg, n = 7, read-out: AUC(0–T), GM (%CV)
  AUC(0-t): 17200 ng·h/mL
[1]; 4.5 mg, cohort Schedule C, 4.5 mg, n = 7, read-out: Tmax, median
  Tmax: 2.02 h
[1]; 4.5 mg, cohort Schedule C, n = 7
  Cmax: 567 ng/mL
[1]; 0.75–4.5 mg, read-out: Time to peak plasma concentration (median Tmax)
  Tmax: 1 to 4 h
[1]; read-out: Mean T1/2, range across doses
  half-life: 34 to 54 h
[2]
  CCR2 mRNA expression change from baseline: transcriptional suppression; also recorded: dose-dependent expression changes
